Values quoted from earlier work as cited in PMC9042886 (RSC Advances, 2021).

How the values were obtained:
HDAC8 = details: read-out: IC50 for HDAC8
HDAC6 = details: read-out: IC50 for HDAC6

Oc1ccc[nH]c1=S [3-HPT, 3-hydroxypyridin-2-thione]
IC50 (HDAC8): 3100 ± 1650 nM
IC50 (HDAC6): 306 ± 69 nM
